Data taken from patent US20250195536A1, “BICYCLOOCTANE KRAS INHIBITORS” (Incyte Corporation, priority 2023, published 2025).

How the values were obtained:
KRAS G12D = KRAS G12D (Homo sapiens, UniProt P01116, G12D); experiment: GDP-GTP exchange assay (KRAS G12D); assay type: biochemical; details: bodipy-GDP/GppNHp exchange with SOS1; 4 h pre-incubation, 2 h reaction;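 also: one dagger IC50 up to 100 nM and two daggers above 100 nM up to 1 μM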
Method in brief: (§1)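 IC50 came from a four-parameter fit of fluorescence loss (485/520 nm) as SOS1 (150 nM) swapped bodipy-GDP for GppNHp (500 μM) on 2.5 nM KRAS, final concentrations. Compounds were pre-incubated 4 h at r.t. (pH 7.5 Hepes, 10 mM MgCl2); exchange ran 2 h (G12D) or 3 h (G12V).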

KRAS G12V = KRAS G12V (Homo sapiens, UniProt P01116, G12V); experiment: GDP-GTP exchange assay (KRAS G12V); assay type: biochemical; details: bodipy-GDP/GppNHp exchange with SOS1; 3 h incubation after GppNHp-SOS1;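 also: one dagger IC50 up to 100 nM and two daggers above 100 nM up to 1 μM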
Sequence of KRAS G12V (P01116 1-188 isoform P01116-2 G12V): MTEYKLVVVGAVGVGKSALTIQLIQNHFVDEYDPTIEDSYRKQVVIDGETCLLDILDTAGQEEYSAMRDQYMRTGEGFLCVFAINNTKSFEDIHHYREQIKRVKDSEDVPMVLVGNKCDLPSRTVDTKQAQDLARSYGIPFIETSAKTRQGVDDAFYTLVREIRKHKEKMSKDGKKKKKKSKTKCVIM
Method in brief: as §1

[1] = Caco2 assay (permeability, Papp A-B); assay type: in vitro ADME; details: human, Caco-2, absorptive direction (A-B), 50 μM test compound, 4% BSA in receiver
Method in brief: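 Absorptive (A-B) Papp: 50 μM test compound in HBSS added to apical side of 22-25-day Caco-2 monolayers (TEER 300 Ω·cm^2), receiver buffer containing 4% BSA. After 120 min at 37 °C, 5% CO2, both sides analysed by LCMS; Papp calculated from flux rate normalized to area and donor amount.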

Sequence of KRAS G12D (P01116 1-188 isoform P01116-2 G12D): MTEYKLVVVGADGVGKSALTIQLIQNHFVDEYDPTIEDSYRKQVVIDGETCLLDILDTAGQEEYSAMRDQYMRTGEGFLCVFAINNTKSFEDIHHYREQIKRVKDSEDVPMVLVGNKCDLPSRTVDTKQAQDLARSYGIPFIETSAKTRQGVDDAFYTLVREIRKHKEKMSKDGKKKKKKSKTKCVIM

With `Cc1nc2c(F)c(-c3cccc(Cl)c3Cl)c(CCC#N)cc2c2c1cc([C@H]1[C@H]3C[C@H](CN(c4ccon4)C3)N1C(=O)C1CC1)n2[C@H]1[C@H]2CN[C@@H]1C2` (atropisomer, axis not shown; (Ra)) [Example 100, 3-((Ra)-1-((1R,4R,5S)-2-azabicyclo[2.1.1]hexan-5-yl)-2-((1S,5R,7R)-6-(cyclopropanecarbonyl)-3-(isoxazol-3-yl)-3,6-diazabicyclo[3.2.1]octan-7-yl)-7-(2,3-dichlorophenyl)-6-fluoro-4-methyl-1H-pyrrolo[3,2-c]quinolin-8-yl)propanenitrile] the “G12D_exchange (KRAS_G12D exchange assay IC50)” value (“G12D_exchange” for short) (KRAS G12D) was “†”, the “G12V_exchange (KRAS_G12V exchange assay IC50)” value (“G12V_exchange” for short) (KRAS G12V) was “†” and the Papp A→B at 120 min, 50 μM [1] was at most 0.5 ×10⁻⁶ cm/s.
With `Cc1sc(N2C[C@@H]3C[C@H](C2)N(C(=O)C2CC2)[C@H]3c2cc3c(C)nc4c(F)c(-c5cccc(Cl)c5Cl)c(CCC#N)cc4c3n2[C@H]2[C@H]3CN[C@@H]2C3)nc1C(C)(F)F` (atropisomer, axis not shown; (Ra)) [Example 103, 3-((Ra)-1-((1R,4R,5S)-2-azabicyclo[2.1.1]hexan-5-yl)-2-((1S,5R,7R)-6-(cyclopropanecarbonyl)-3-(4-(1,1-difluoroethyl)-5-methylthiazol-2-yl)-3,6-diazabicyclo[3.2.1]octan-7-yl)-7-(2,3-dichlorophenyl)-6-fluoro-4-methyl-1H-pyrrolo[3,2-c]quinolin-8-yl)propanenitrile] the “G12D_exchange” value (KRAS G12D) was “†”, the “G12V_exchange” value (KRAS G12V) was “†” and the Papp A→B at 120 min, 50 μM [1] was at most 0.5 ×10⁻⁶ cm/s.
In the case of `Cc1nc2c(F)c(-c3cccc(Cl)c3Cl)c(CCC#N)cc2c2c1cc([C@H]1[C@H]3C[C@H](CN(c4cnsc4)C3)N1C(=O)C1CC1)n2[C@H]1[C@H]2CN[C@@H]1C2` (atropisomer, axis not shown; (Ra)) [Example 104, 3-((Ra)-1-((1R,4R,5S)-2-azabicyclo[2.1.1]hexan-5-yl)-2-((1S,5R,7R)-6-(cyclopropanecarbonyl)-3-(isothiazol-4-yl)-3,6-diazabicyclo[3.2.1]octan-7-yl)-7-(2,3-dichlorophenyl)-6-fluoro-4-methyl-1H-pyrrolo[3,2-c]quinolin-8-yl)propanenitrile], the “G12D_exchange” value (KRAS G12D) is reported as “†”, the “G12V_exchange” value (KRAS G12V) is reported as “†” and the Papp A→B at 120 min, 50 μM [1] is reported as at most 0.5 ×10⁻⁶ cm/s.
In the case of `Cc1nc2c(F)c(-c3cccc(Cl)c3Cl)c(CCC#N)cc2c2c1cc([C@H]1[C@H]3C[C@H](CN(c4cc(C)n(C)n4)C3)N1C(=O)C1CC1)n2[C@H]1[C@H]2CN[C@@H]1C2` (atropisomer, axis not shown; (Ra)) [Example 105, 3-((Ra)-1-((1R,4R,5S)-2-azabicyclo[2.1.1]hexan-5-yl)-2-((1S,5R,7R)-6-(cyclopropanecarbonyl)-3-(1,5-dimethyl-1H-pyrazol-3-yl)-3,6-diazabicyclo[3.2.1]octan-7-yl)-7-(2,3-dichlorophenyl)-6-fluoro-4-methyl-1H-pyrrolo[3,2-c]quinolin-8-yl)propanenitrile], the “G12D_exchange” value (KRAS G12D) is reported as “†”, the “G12V_exchange” value (KRAS G12V) is reported as “†” and the Papp A→B at 120 min, 50 μM [1] is reported as at most 0.5 ×10⁻⁶ cm/s.
With `Cc1nc2c(F)c(-c3cccc(Cl)c3Cl)c(CCC#N)cc2c2c1cc([C@H]1[C@H]3C[C@H](CN(c4ncc(C5CC5)s4)C3)N1C(=O)C1CC1)n2[C@H]1[C@H]2CN[C@@H]1C2` (atropisomer, axis not shown; (Ra)) [Example 106, 3-((Ra)-1-((1R,4R,5S)-2-azabicyclo[2.1.1]hexan-5-yl)-2-((1S,5R,7R)-6-(cyclopropanecarbonyl)-3-(5-cyclopropylthiazol-2-yl)-3,6-diazabicyclo[3.2.1]octan-7-yl)-7-(2,3-dichlorophenyl)-6-fluoro-4-methyl-1H-pyrrolo[3,2-c]quinolin-8-yl)propanenitrile] the “G12D_exchange” value (KRAS G12D) was “†”, the “G12V_exchange” value (KRAS G12V) was “†” and the Papp A→B at 120 min, 50 μM [1] was at most 0.5 ×10⁻⁶ cm/s.
With `Cc1nc2c(F)c(-c3cccc(Cl)c3Cl)c(CCC#N)cc2c2c1cc([C@H]1[C@H]3C[C@H](CN(C(=O)C4CC4)C3)N1C(=O)C1CC1)n2[C@H]1[C@H]2CN[C@@H]1C2` (atropisomer, axis not shown; (Ra)) [Example 107, 3-((Ra)-1-((1R,4R,5S)-2-Azabicyclo[2.1.1]hexan-5-yl)-2-((1 S,5R,7R)-3,6-di(cyclopropanecarbonyl)-3,6-diazabicyclo[3.2.1]octan-7-yl)-7-(2,3-dichlorophenyl)-6-fluoro-4-methyl-1H-pyrrolo[3,2-c]quinolin-8-yl)propanenitrile] the “G12D_exchange” value (KRAS G12D) was “†”, the “G12V_exchange” value (KRAS G12V) was “†” and the Papp A→B at 120 min, 50 μM [1] was at most 0.5 ×10⁻⁶ cm/s.
For `COC(=O)N1C[C@@H]2C[C@H](C1)N(C(=O)C1CC1)[C@H]2c1cc2c(C)nc3c(F)c(-c4cccc(Cl)c4Cl)c(CCC#N)cc3c2n1[C@H]1[C@H]2CN[C@@H]1C2` (atropisomer, axis not shown; (Ra)) [Example 108, Methyl (1 S,5R,7R)-7-((Ra)-1-((1R,4R,5S)-2-azabicyclo[2.1.1]hexan-5-yl)-8-(2-cyanoethyl)-7-(2,3-dichlorophenyl)-6-fluoro-4-methyl-1H-pyrrolo[3,2-c]quinolin-2-yl)-6-(cyclopropanecarbonyl)-3,6-diazabicyclo[3.2.1]octane-3-carboxylate], the “G12D_exchange” value (KRAS G12D) was “†”, the “G12V_exchange” value (KRAS G12V) was “†” and the Papp A→B at 120 min, 50 μM [1] was at most 0.5 ×10⁻⁶ cm/s.
With `Cc1noc(C)c1S(=O)(=O)N1C[C@@H]2C[C@H](C1)N(C(=O)C1CC1)[C@H]2c1cc2c(C)nc3c(F)c(-c4cccc(Cl)c4Cl)c(CCC#N)cc3c2n1[C@H]1[C@H]2CN[C@@H]1C2` (atropisomer, axis not shown; (Ra)) [Example 110, 3-((Ra)-1-((1R,4R,5S)-2-Azabicyclo[2.1.1]hexan-5-yl)-2-((1 S,5R,7R)-6-(cyclopropanecarbonyl)-3-((3,5-dimethylisoxazol-4-yl)sulfonyl)-3,6-diazabicyclo[3.2.1]octan-7-yl)-7-(2,3-dichlorophenyl)-6-fluoro-4-methyl-1H-pyrrolo[3,2-c]quinolin-8-yl)propanenitrile] the “G12D_exchange” value (KRAS G12D) was “†”, the “G12V_exchange” value (KRAS G12V) was “†” and the Papp A→B at 120 min, 50 μM [1] was at most 0.5 ×10⁻⁶ cm/s.
In the case of `Cc1nc2c(F)c(-c3cccc(Cl)c3Cl)c(CCC#N)cc2c2c1cc([C@H]1[C@H]3C[C@H](CN(S(=O)(=O)N4CCOCC4)C3)N1C(=O)C1CC1)n2[C@H]1[C@H]2CN[C@@H]1C2` (atropisomer, axis not shown; (Ra)) [Example 111, 3-((Ra)-1-((1R,4R,5S)-2-Azabicyclo[2.1.1]hexan-5-yl)-2-((1 S,5R,7R)-6-(cyclopropanecarbonyl)-3-(morpholinosulfonyl)-3,6-diazabicyclo[3.2.1]octan-7-yl)-7-(2,3-dichlorophenyl)-6-fluoro-4-methyl-1H-pyrrolo[3,2-c]quinolin-8-yl)propanenitrile], the “G12D_exchange” value (KRAS G12D) is reported as “††”, the “G12V_exchange” value (KRAS G12V) is reported as “†” and the Papp A→B at 120 min, 50 μM [1] is reported as at most 0.5 ×10⁻⁶ cm/s.
For `Cc1nc2c(F)c(-c3cccc(Cl)c3Cl)c(CCC#N)cc2c2c1cc(C1C3CC(CN(C)C3=O)N1C(=O)C1CC1)n2C1C2CNC1C2` (atropisomer, axis not shown; (Ra)) [Example 112, 3-((Ra)-1-((1R,4R,5S)-2-Azabicyclo[2.1.1]hexan-5-yl)-2-((1R,5R,7R)-6-(cyclopropanecarbonyl)-3-methyl-2-oxo-3,6-diazabicyclo[3.2.1]octan-7-yl)-7-(2,3-dichlorophenyl)-6-fluoro-4-methyl-1H-pyrrolo[3,2-c]quinolin-8-yl)propanenitrile], the “G12D_exchange” value (KRAS G12D) was “††”, the “G12V_exchange” value (KRAS G12V) was “†” and the Papp A→B at 120 min, 50 μM [1] was at most 0.5 ×10⁻⁶ cm/s.
With `Cc1nc2c(F)c(-c3cccc(Cl)c3Cl)c(CCC#N)cc2c2c1cc(C1C3CC(CN(C4CCCCC4)C3=O)N1C(=O)C1CC1)n2C1C2CNC1C2` (atropisomer, axis not shown; (Ra)) [Example 113, 3-((Ra)-1-((1R,4R,5S)-2-Azabicyclo[2.1.1]hexan-5-yl)-2-((1R,5R,7R)-3-cyclohexyl-6-(cyclopropanecarbonyl)-2-oxo-3,6-diazabicyclo[3.2.1]octan-7-yl)-7-(2,3-dichlorophenyl)-6-fluoro-4-methyl-1H-pyrrolo[3,2-c]quinolin-8-yl)propanenitrile] the “G12D_exchange” value (KRAS G12D) was “†††”, the “G12V_exchange” value (KRAS G12V) was “†” and the Papp A→B at 120 min, 50 μM [1] was at most 0.5 ×10⁻⁶ cm/s.
With `Cc1nc2c(F)c(-c3cccc(Cl)c3Cl)c(CCC#N)cc2c2c1cc([C@H]1[C@@H]3COC[C@@H](C3)N1C(=O)C1CC1)n2[C@H]1[C@H]2CN[C@@H]1C2` (atropisomer, axis not shown; (Ra)) [Example 115, 3-((Ra)-1-((1R,4R,5S)-2-Azabicyclo[2.1.1]hexan-5-yl)-2-((1R,5R,7R)-6-(cyclopropanecarbonyl)-3-oxa-6-azabicyclo[3.2.1]octan-7-yl)-7-(2,3-dichlorophenyl)-6-fluoro-4-methyl-1H-pyrrolo[3,2-c]quinolin-8-yl)propanenitrile] the “G12D_exchange” value (KRAS G12D) was “†”, the “G12V_exchange” value (KRAS G12V) was “†” and the Papp A→B at 120 min, 50 μM [1] was at most 0.5 ×10⁻⁶ cm/s.
